Earlier results, collected in US12383619B2, “Use of glutamate modulating agents with immunotherapies to treat cancer” (Biohaven Therapeutics Ltd., priority 2016, dated 2025).
Where two headings read alike, the source gives them in different places.

What was measured:
advanced NSCLC = settings: cited from earlier work; for OS: Hazard ratio / PFS: Hazard ratio: pembrolizumab compared to docetaxel
advanced melanoma = settings: cited from earlier work; for Response duration: Median in months: patients with confirmed complete or partial response; for OS: Hazard ratio / PFS: Hazard ratio: pembrolizumab compared to ipilimumab
[1] = TPS 1% (entire population), 75 mg/m^2 every 3 weeks
[2] = TPS≥50% (section head prints 'TPS'), 75 mg/m^2 every 3 weeks
[3] = TPS 1% (entire population), 2 mg/kg every 3 weeks
[4] = TPS 1% (entire population), 10 mg/kg every 3 weeks
[5] = TPS≥50% (section head prints 'TPS'), 2 mg/kg every 3 weeks
[6] = TPS≥50% (section head prints 'TPS'), 10 mg/kg every 3 weeks

## CC(=O)O[C@@]12CO[C@@H]1C[C@H](O)[C@@]1(C)C(=O)[C@H](O)C3=C(C)[C@@H](OC(=O)[C@H](O)[C@@H](NC(=O)OC(C)(C)C)c4ccccc4)C[C@@](O)([C@@H](OC(=O)c4ccccc4)[C@H]21)C3(C)C [Docetaxel, docetaxel]
Advanced NSCLC; TPS 1% (entire population), 75 mg/m^2 every 3 weeks, BICR, RECIST 1.1
  PFS: Number of patients with event: 257
Advanced NSCLC; [1]
  OS: % of patients with event: (56%)
  OS: Number of patients with event: 193
  Overall response rate: ORR %: 9%
  PFS: % of patients with event: (75%)
  PFS: Median in months: 4.0 months
  Response duration: % ongoing: 34%
  Response duration: Median in months: 6.2 months
Advanced NSCLC; TPS≥50% (section head prints 'TPS'), 75 mg/m^2 every 3 weeks, all partial responses
  Overall response rate: ORR %: 8%
Advanced NSCLC; [2]
  OS: % of patients with event: (57%)
  OS: Median in months: 8.2 months
  OS: Number of patients with event: 86
  PFS: % of patients with event: (78%)
  PFS: Median in months: 4.1 months
  PFS: Number of patients with event: 118
  Response duration: % ongoing: 33%
  Response duration: Median in months: 8.1 months

## Pembrolizumab: humanized monoclonal IgG4 antibody directed against human cell surface receptor PD-1
Advanced melanoma; 10 mg/kg every 2 weeks
  Best overall response: ORR %: 34%
  Complete response %: 5%
  OS: % of patients with event: (30%)
  OS: Median in months: Not reached
  OS: Number of patients with event: 85
  PFS: % of patients with event: (56%)
  PFS: Median in months: 5.5 months
  PFS: Number of patients with event: 157
  Partial response %: 29%
  Response duration: % ongoing: 89%
  Response duration: Median in months: 8.3 months
  OS: Hazard ratio: 0.63
  PFS: Hazard ratio: 0.58
Advanced melanoma; 10 mg/kg every 3 weeks
  Best overall response: ORR %: 33%
  Complete response %: 6%
  OS: % of patients with event: (33%)
  OS: Median in months: Not reached
  OS: Number of patients with event: 92
  PFS: % of patients with event: (57%)
  PFS: Median in months: 4.1 months
  PFS: Number of patients with event: 157
  Partial response %: 27%
  Response duration: % ongoing: 97%
  Response duration: Median in months: Not reached
  OS: Hazard ratio: 0.69
  PFS: Hazard ratio: 0.58
Advanced NSCLC; TPS 1% (entire population), 2 mg/kg every 3 weeks, BICR, RECIST 1.1
  PFS: Number of patients with event: 266
Advanced NSCLC; [3]
  OS: % of patients with event: (50%)
  OS: Number of patients with event: 172
  Overall response rate: ORR %: 18%
  PFS: % of patients with event: (77%)
  PFS: Median in months: 3.9 months
  Response duration: % ongoing: 73%
  Response duration: Median in months: Not reached
  OS: Hazard ratio: 0.71
  PFS: Hazard ratio: 0.88
Advanced NSCLC; TPS 1% (entire population), 10 mg/kg every 3 weeks, BICR, RECIST 1.1
  PFS: Number of patients with event: 255
Advanced NSCLC; [4]
  OS: % of patients with event: (45%)
  OS: Number of patients with event: 156
  Overall response rate: ORR %: 18%
  PFS: % of patients with event: (74%)
  PFS: Median in months: 4.0 months
  Response duration: % ongoing: 72%
  Response duration: Median in months: Not reached
  OS: Hazard ratio: 0.61
  PFS: Hazard ratio: 0.79
Advanced NSCLC; TPS≥50% (section head prints 'TPS'), 2 mg/kg every 3 weeks, all partial responses
  Overall response rate: ORR %: 30%
Advanced NSCLC; [5]
  OS: % of patients with event: (42%)
  OS: Median in months: 14.9 months
  OS: Number of patients with event: 58
  PFS: % of patients with event: (64%)
  PFS: Median in months: 5.2 months
  PFS: Number of patients with event: 89
  Response duration: % ongoing: 76%
  Response duration: Median in months: Not reached
  OS: Hazard ratio: 0.54
  PFS: Hazard ratio: 0.58
Advanced NSCLC; TPS≥50% (section head prints 'TPS'), 10 mg/kg every 3 weeks, all partial responses
  Overall response rate: ORR %: 29%
Advanced NSCLC; [6]
  OS: % of patients with event: (40%)
  OS: Median in months: 17.3 months
  OS: Number of patients with event: 60
  PFS: % of patients with event: (64%)
  PFS: Median in months: 5.2 months
  PFS: Number of patients with event: 97
  Response duration: % ongoing: 75%
  Response duration: Median in months: Not reached
  OS: Hazard ratio: 0.50
  PFS: Hazard ratio: 0.59
